Results on two substances are retold here after patent US20100029702A1, “Method For Identification of Compound Having Anti-Anxiety Effect” (priority 2006, published 2010).

One assay deals with CHO-K1 cell strain. Kind of assay: Changes in intracellular Ca2+ concentration in CHO-K1 host cell not transfected (negative control). In kind it is cell-based, Chinese hamster. Conditions: CHO-K1 not transfected; peptide 1 nM (Example 5). How it is done:
(§1) The specific method for measuring changes in the intracellular Ca^2+ concentration in the HA-ph01207#10-6 cell strain induced by CCK-8S (SEQ ID NO: 14) and the results are described below. The HA-ph01207#10-6 cell strain was seeded on a 96-well plate (a plate with a black wall and a transparent bottom) at a cell count of 2×10^4/100 μL medium/well and cultured at 37° C. in the presence of 5% CO2. As a medium, DMEM/F12 (Gibco) containing 10% fetal calf serum (Moregate) was used. On the following day, 50 μL of the medium was removed from each well, 50 μL of a loading buffer was added to each well, and the mixture was reacted at room temperature for 1.5 h, so that a fluorescent dye contained in the loading buffer should be taken up into the cell. The loading buffer was prepared by dissolving component A of the FLIPR Calcium 3 Assay Kit (Molecular Device) in a solution obtained by adding 0.1 mL of 500 mM probenecid (Sigma) to 9.9 mL of component B. After reaction, changes over time in the fluorescence intensity in each well after addition of CCK-8S (Peptide Institute, Inc.) were measured using the FLEX station (Molecular Device). Furthermore, similar measurement was performed for CCK-8NS (Peptide Institute, Inc.) and CCK-4 (Peptide Institute, Inc.). 0.52 mg of CCK-8S (SEQ ID NO: 14) was dissolved in 4.5 mL of 1% NaHCO3 (Wako) to prepare a solution having 0.1 mM concentration. 0.53 mg of CCK-8NS was dissolved in 0.50 mL of dimethyl sulfoxide (DMSO, Sigma), and then 4.50 mL of redistilled water H2O was added to prepare a solution having 0.1 mM concentration. 0.54 mg of CCK-4 was dissolved in 0.46 mL of DMSO, 4.09 mL of redistilled water was added to prepare a solution having 0.2 mM concentration. CCK-8S (SEQ ID NO: 14), CCK-8NS, and CCK-4 were diluted in phosphate-buffered physiological saline (PBS) to prepare 5 nM solutions, and 25 μL each was added (final concentration 1 nM) to perform measurement. As a positive control for including an increase in the intracellular Ca^2+ concentration, A23187 (Calbiochem) was used at a final concentration of 10 μM. As a negative control, the CHO-K1 cell strain used to prepare the HA-ph01207#10-6 cell strain as a host was used. Since the CHO-K1 cell strain was not transfected with the ph01207-expressing vector, the ph01207 gene product was not expressed.
Changes in the intracellular calcium (Ca^2+) concentration induced by CCK-8S were measured by a method similar to the method described in Example 5 using the 7tmHR stably-expressing strain and the hk01941 stably-expressing strain prepared in Example 7. As a control, a host cell not transfected with the 7tmHR-expressing vector or the hk01941-expressing vector was also used.
Cells were seeded in a 96-well plate (a plate with a black wall and a transparent bottom) at a cell count of 3×10^4/100 μL of medium/well and cultured overnight at 37° C. in a 5% CO2 incubator. On the following day, 50 μL of the medium was removed from each well, […] of a loading buffer was added to each well, and the mixture was reacted at room temperature for 1 h, so that a fluorescent dye contained in the loading buffer was taken up into the cell. The loading buffer was prepared by a method similar to the method described in Example 5. After reaction, changes over time in the fluorescence intensity in each well after addition of CCK-8S were measured using the FLEX station (Molecular Device). CCK-8S was used at a final concentration of 10 pM to 1 μM. Furthermore, as a positive control of the assay, A23187 was used at a final concentration of 20 μM.
Cells were seeded in a 96-well plate (a plate with a black wall and a transparent bottom) at a cell count of 3×10^4/100 μL of medium/well and cultured overnight at 37° C. in a 5% CO2 incubator. […]

The target of assay [1] is T1, protein encoded by ph01207 (Homo sapiens, UniProt O60241, DEL308-362).
T1 construct: expressed in transfected cells; host or cells: CHO-K1 (HA-ph01207#10-6, FERM BP-10101), T8HA-attR/pCINeo
T1 sequence (O60241 with tags, fused parts or gaps DEL308-362): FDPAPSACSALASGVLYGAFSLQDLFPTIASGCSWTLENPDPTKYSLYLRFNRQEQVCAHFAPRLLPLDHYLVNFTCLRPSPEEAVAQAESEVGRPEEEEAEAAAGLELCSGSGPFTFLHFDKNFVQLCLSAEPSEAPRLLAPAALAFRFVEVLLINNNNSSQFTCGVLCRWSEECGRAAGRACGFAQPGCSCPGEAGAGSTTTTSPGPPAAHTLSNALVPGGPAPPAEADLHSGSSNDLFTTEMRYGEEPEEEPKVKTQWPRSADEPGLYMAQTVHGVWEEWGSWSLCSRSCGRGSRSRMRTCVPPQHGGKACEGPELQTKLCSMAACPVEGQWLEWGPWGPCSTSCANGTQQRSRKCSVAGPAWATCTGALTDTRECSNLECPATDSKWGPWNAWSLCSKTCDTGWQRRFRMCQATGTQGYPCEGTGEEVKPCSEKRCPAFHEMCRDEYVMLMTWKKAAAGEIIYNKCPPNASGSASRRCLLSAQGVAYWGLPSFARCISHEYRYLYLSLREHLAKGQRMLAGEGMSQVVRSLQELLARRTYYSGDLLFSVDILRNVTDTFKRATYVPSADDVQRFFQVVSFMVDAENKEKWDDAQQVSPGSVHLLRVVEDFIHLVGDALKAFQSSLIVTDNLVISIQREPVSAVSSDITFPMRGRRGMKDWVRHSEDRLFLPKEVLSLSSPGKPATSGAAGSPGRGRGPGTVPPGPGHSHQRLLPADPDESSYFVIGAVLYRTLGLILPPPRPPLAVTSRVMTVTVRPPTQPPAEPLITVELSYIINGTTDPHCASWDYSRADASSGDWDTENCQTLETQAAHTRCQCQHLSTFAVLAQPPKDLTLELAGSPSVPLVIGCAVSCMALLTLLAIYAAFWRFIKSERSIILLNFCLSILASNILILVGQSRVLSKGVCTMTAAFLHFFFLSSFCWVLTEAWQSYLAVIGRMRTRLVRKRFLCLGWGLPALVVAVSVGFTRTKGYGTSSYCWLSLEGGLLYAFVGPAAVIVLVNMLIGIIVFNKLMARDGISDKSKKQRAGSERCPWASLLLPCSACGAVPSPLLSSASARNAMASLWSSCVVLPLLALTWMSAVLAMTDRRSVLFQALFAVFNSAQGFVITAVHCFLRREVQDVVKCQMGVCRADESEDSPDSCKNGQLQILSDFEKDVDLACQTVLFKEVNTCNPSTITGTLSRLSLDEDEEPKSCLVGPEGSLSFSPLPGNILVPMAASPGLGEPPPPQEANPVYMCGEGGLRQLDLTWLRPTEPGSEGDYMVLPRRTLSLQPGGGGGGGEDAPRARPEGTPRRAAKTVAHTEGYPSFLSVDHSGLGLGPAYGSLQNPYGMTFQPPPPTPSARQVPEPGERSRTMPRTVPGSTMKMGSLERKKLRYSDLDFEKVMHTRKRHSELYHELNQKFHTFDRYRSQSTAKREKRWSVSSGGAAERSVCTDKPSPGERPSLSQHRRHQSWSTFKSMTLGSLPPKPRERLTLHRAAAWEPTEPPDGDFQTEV
Kind of assay: Changes in intracellular Ca2+ concentration in HA-ph01207#10-6 cell strain (CHO-K1 stably expressing ph01207). Type of assay: cell-based. The note with it: peptide at final concentration 1 nM. How it is done: Changes in the intracellular calcium (Ca^2+) concentration induced by CCK-8S (SEQ ID NO: 14), CCK-8NS, or CCK-4 were measured using the cell strains expressing ph01207 prepared in Example 2. The cell strains prepared in Example 2 were eight strains that expressed the protein encoded by ph01207 as FLAG-tag fusion proteins and four strains that expressed the protein encoded by ph01207 as HA-tag fusion proteins. Of these, the HA-ph01207#10-6 cell strain, a strain obtained by cloning one of the cell strains that stably expressed the protein encoded by ph01207 as HA-tag fusion proteins, was used in this example. CCK-8NS was a CCK octapeptide having the same amino acid sequence as that of CCK-8S (SEQ ID NO: 14), but a region from the C terminus to the seventh tyrosine residue was not sulfated. CCK-4 was a tetrapeptide comprising residues from the C terminus to the fourth amino acid of CCK-8S (SEQ ID NO: 14).
as §1, with “CCK-8S (SEQ ID NO: 14), CCK-8NS, and CCK-4 were diluted in phosphate-buffered physiological saline (PBS) to prepare 5 nM solutions, and 25 μL each was added (final concentration 1 nM) to perform measurement. As a positive control for including an increase in the intracellular Ca^2+ concentration, A23187 (Calbiochem) was used at a final concentration of 10 μM. As a negative control, the CHO-K1 cell strain used to prepare the HA-ph01207#10-6 cell strain as a host was used. Since the CHO-K1 cell strain was not transfected with the ph01207-expressing vector, the ph01207 gene product was not expressed.” left out

As for “CCK-4: tetrapeptide comprising residues from the C terminus to the fourth amino acid of CCK-8S”, the “Change in intracellular Ca2+ concentration (fluorescence intensity)” value in the assay with CHO-K1 cell strain is given as “not increased”; in assay [1], “did not increase”.
As to CCK-8 nonsulfated form [CCK-8NS], the “Change in intracellular Ca2+ concentration (fluorescence intensity)” value with CHO-K1 cell strain is on record as “not increased”; in assay [1] it was “did not increase”.
